Where two headings read alike, the source gives them in different places.
Experiment: Bioanalysis of brain and plasma samples (UPLC-MS/MS)
Type: in vivo, Sprague Dawley rats
Conditions: male, po, rat, p.o.; for Kp at 0.5 h / Kp at 1 h / Kp at 3 h / Kp at 6 h / Kp at 12 h: read-out: Brain/Plasma ratio
Method: Young adult Male Sprague Dawley rats of approximately 250 g weight were purchased from Charles River and received vehicle (2.5% HP betaCD+1M MeSO4, pH 2.5) or 0-40 mg/kg of test compounds (dissolved in vehicle) by oral gavage (p.o). The compounds are dosed at a volume of 5 ml/kg. Cohorts of 5-10 animals were established for each treatment condition.
Studies were set up as acute dose response treatment studies were samples were taken at T=180 minutes after initial dosing, or as 12 h or 24 h timecourse treatment studies. At the end of the test period, the animals were stunned and decapitated with a guillotine. Trunk-blood was sampled in EDTA coated tubes after decapitation of the animal. The blood was centrifuged at 2200G at 4° C. for 15 minutes and the plasma was collected and frozen at −80° C. The blood was aliquoted for Aβ ELISA and DMPK analysis. Immediately following sacrifice, the brain was extracted and split into 2 halves. The left half was dissected; with the front forebrain taken for Aβ ELISA and the remainder used for DMPK analysis. These samples were also snap frozen on dry ice and stored at −80° C. until use for analysis. The right hemibrains were snap frozen on dry ice and stored at −80° C. for independent confirmatory Aβ ELISA evalution.
TC was determined in plasma and brain homogenate using UltraPerformance LC® (UPLC®) chromatography followed by tandem-MS (MS/MS) detection.
Brain homogenate was prepared by homogenizing the brain 1:4 (v/v) with water:2-propanol:DMSO (50:30:20 v/v/v) followed by centrifugation and collection of the supernatant. Calibration standards and QC samples were prepared using a Hamilton robot. 150 μL of ISTD in acetonitrile (1 ng/mL ISTD) was added to 25 μL of calibration standards, QC samples and test samples (plasma and brain homogenate) using a Biomek robot. After centrifugation (6200 g, 4° C., 20 min) 100 μL supernatant from each sample was transferred to a new plate and mixed with 100 μL water with 0.1% formic acid using a Biomek robot (method file InVivo transfer). After a quick centrifugation (6200 g, 4° C., 5 min) the samples were placed in the auto-sampler.
MS/MS detection was done with an Applied Biosystems Sciex API 4000 instrument in positive-ion electrospray ionisation mode. TC and ISTD were detected at a parent>daughter mass to charge ratio (m/z). Nitrogen was used for the nebulizer and collision gases. The peak area correlated linearly with the plasma and brain concentration of the analytes in the range of 1.00-1000 ng/mL plasma and 5.00-5000 ng/g brain (corrected for dilution). If the plasma/brain sample drug concentration was above 1000 ng/mL or 5000 ng/g, the sample was diluted appropriately in blank plasma/blank brain homogenate before analysis.

[1] = Sprague Dawley, brain and plasma, 10 mg/kg
[2] = Sprague Dawley, brain, 10 mg/kg, read-out: Mean rat brain conc.
[3] = Sprague Dawley, plasma, 10 mg/kg, read-out: Mean rat plasma conc.
[4] = Sprague-Dawley, brain, 20 mg/kg, read-out: Mean rat brain conc.
[5] = Sprague-Dawley, brain, 40 mg/kg, read-out: Mean rat brain conc.
[6] = Sprague-Dawley, brain/plasma, 20 mg/kg
[7] = Sprague-Dawley, brain/plasma, 40 mg/kg
[8] = Sprague-Dawley, plasma, 20 mg/kg, read-out: Mean rat plasma conc.
[9] = Sprague-Dawley, plasma, 40 mg/kg, read-out: Mean rat plasma conc.

## [2H]C([2H])([2H])Oc1cnc(C(=O)Nc2ccc(F)c([C@]3(C)CC[C@@](F)(CF)C(N)=N3)c2)cn1 [Example 1, N-(3-((2S,5S)-6-amino-5-fluoro-5-(fluoromethyl)-2-methyl-2,3,4,5-tetrahydropyridin-2-yl)-4-fluorophenyl)-5-(methoxy-d3)pyrazine-2-carboxamide]
[1]
  Kp at 0.5 h: 1.8
  Kp at 1 h: 2.3
  Kp at 3 h: 2.1
  Kp at 6 h: 1.9
  Kp at 12 h: 1.7
[2]
  concentration at 0.5 h: 550 ng/g
  concentration at 1 h: 1100 ng/g
  concentration at 3 h: 700 ng/g
  concentration at 6 h: 430 ng/g
  concentration at 12 h: 140 ng/g
[3]
  concentration at 0.5 h: 300 ng/mL
  concentration at 1 h: 500 ng/mL
  concentration at 3 h: 340 ng/mL
  concentration at 6 h: 230 ng/mL
  concentration at 12 h: 79 ng/mL
[4]
  concentration at 0.5 h: 1530 ng/g
  concentration at 1 h: 2380 ng/g
  concentration at 3 h: 1960 ng/g
  concentration at 6 h: 1540 ng/g
  concentration at 12 h: 438 ng/g
[5]
  concentration at 0.5 h: 2500 ng/g
  concentration at 1 h: 2800 ng/g
  concentration at 3 h: 3000 ng/g
  concentration at 6 h: 3700 ng/g
  concentration at 12 h: 1100 ng/g
[6]
  Kp at 0.5 h: 2.9
  Kp at 1 h: 3.9
  Kp at 3 h: 3.4
  Kp at 6 h: 3.2
  Kp at 12 h: 2.7
[7]
  Kp at 0.5 h: 2.8
  Kp at 1 h: 3.1
  Kp at 3 h: 2.8
  Kp at 6 h: 3
  Kp at 12 h: 2.5
[8]
  concentration at 0.5 h: 532 ng/mL
  concentration at 1 h: 614 ng/mL
  concentration at 3 h: 572 ng/mL
  concentration at 6 h: 477 ng/mL
  concentration at 12 h: 159 ng/mL
[9]
  concentration at 0.5 h: 740 ng/mL
  concentration at 1 h: 880 ng/mL
  concentration at 3 h: 1100 ng/mL
  concentration at 6 h: 1200 ng/mL
  concentration at 12 h: 410 ng/mL
